Test results from US6723699B1, “Treating disorders by application of insulin-like growth factors and analogs” (Cephalon, Inc., priority 1989, dated 2004).

What was measured:
[1] = tested on: 125I-[Threonine59]IGF-I binding to brain tissue sections; assay: 125I-[Threonine59]IGF-I binding displacement on rat brain tissue sections
Experimental: Brains were removed intact from adult Sprague-Dawley rats, frozen on powdered dry ice, and cut into 20 μm sections (at the level of the cerebellum and brain stem) which were
thaw-mounted onto gelatin-coated glass microscope slides (Herkenham and Pert, J. Neurosci. 2:1129-1149 (1982)). Using a modification of the method of Bohannon et al. (1986), the tissue sections were covered with 250 μl of HEPES assay buffer (see Example 1) containing 0.01 nM ^125I-[Threonine^59]IGF-I alone or in combination with unlabeled IGF-I, IGF-II, or synthetic peptide fragments thereof. The sections were incubated at 4° C. for 24 hours and then rinsed in three 1-minute changes (200 ml each) of ice-cold HEPES assay buffer. The tissue sections were then wiped off the slides with filter paper, and the tissue-bound radioactivity was measured in a Beckman Model 5500B Gamma Counter.

[2] = tested on: brain ornithine decarboxylase; assay: Induction of brain ornithine decarboxylase after intracerebral injection, 4 day old rats; type: in vivo, rat; settings: 6 hours
Experimental: The in vivo activity of IGF-I, IGF-II or synthetic peptide derivatives of these molecules was tested using a biochemical marker for CNS neurotrophic activity, the induction of brain ornithine decarboxylase. The induction (i.e. increased activity) of ornithine decarboxylase has been reported to be a general marker for the actions of a variety of trophic factors. (Schwartz et al., Dev. Brain Res. 1:403-413 (1981); Kanje et al., Brain Res. 381:24-28 (1986); Russell et al., Life Sci. 19:1297-1306 (1976); MacDonnell et al. Proc. Natl. Acad. Sci. USA 74, 4681-4684 (1977); […] et al. Proc. Natl. Acad. Sci. USA 82, 4365-4368 (1985)). Sprague-Dawley rats, 4 days old, were injected intracerebrally (in the area of the lateral ventricle) with 5 μl of 0.1 M phosphate-buffered saline (PBS) containing IGF-I, IGF-II or a synthetic peptide derivative (1.25-2.5 μg dose, with 6 animals per treatment group). After 6 hours, the brains were removed, and ornithine decarboxylase was assayed essentially as described by Lewis et al., Proc. Natl. Acad. Sci. USA 75:1021-1023 (1978).

[3] = tested on: fetal rat cortical neuronal cultures; assay: Fetal rat cortical neuron survival by [3H]leucine incorporation; type: cell-based
Experimental: The neuronal survival promoting activity of IGF-I and IGF-II was assayed on fetal rat cortical neuranal cultures. Cerebral cortices were removed from embryonic day 18 fetal rats. Cortices were minced and treated with neutral protease (Dispase, Collaborative Research) to yield dissociated cell preparations. Cells were plated at low density (5×10^3 cells/well) onto poly-L-ornithine and laminin coated ½ area 96 well plates in 50 μl of serum and insulin-free N2 medium containing 0.05% BSA and 50 μM leucine. IGF-I or II were present from time of seeding. Control cultures received no growth factor. Cultures were incubated for 24 hr at 37° C. in an atmosphere of 5% CO2, 95% air. After 24 hrs, [^3H]leucine was added in an additional 50 μl of modified N2 medium to a final concentration of 12.5 μCi/ml. Twenty-four hours after the addition of [^3H]leucine, cultures were harvested, protein precipitated on filters with 10% trichloroacetic acid, and dried filters counted in a liquid scintillation counter. The incorporation of [^3H]leucine into cells is an accurate reflection of cell survival, since incorporated [^3H]leucine counts correlated directly with the number of surviving cells as measured by microscopic counts of cells in identical cultures.

[4] = tested on: motoneurons; assay: Motoneuron survival in ovo (developmentally regulated motoneuron death); type: in vivo, chick; settings: 5 μg/egg daily onto chorioallantoic membrane, E6 to E9, counted E10
From the text: In the spinal cord, as well as in other regions of the nervous system, neurons are over-produced during development, and undergo a process of naturally occurring cell death prior to […] (reviewed in Oppenheim, R. W. 1991, Annu Rev. Neurosci. 14:453-501). During this period, approximately 50% of the motoneurons degenerate and die. Certain neurotrophic agents applied exogenously during this period prevent or retard this form of neuronal death (e.g., partially purified muscle extracts and ciliary neurotrophic factor reduce motor neuron death in chick embryos (McManaman et al., 1990, Neuron 4:891-898; Oppenheim et al. 1991, Science 25:1616-1617).
The IGFs were administered daily onto chorioallantoic membrane (5 μg/egg in a volume of 50 μl) from embryonic day E6 to E9 through a small window cut into the shell of the egg. Control embryos received an equal volume of vehicle (phosphate buffered saline) alone on E10, the embryos were removed, sacrificed and the spinal cords sectioned. Motoneurons (identified morphologically in silver-stained sections) were counted in serial sections from both treated and control embryos. […] The differences between effects produced by the different IGFs used were not statistically significant (Student t test […]).

Q: Which “PERCENT MAX. BOUND” value ([1]; peptide 4 pM, 0.01 nM 125I-[Thr59]IGF-I) does the source give for “GPETLCGAELVDALQFVCGDRGFYFNKPTGYGSSS-RRAPQTGIVDECCFRSCDLRRLEMYCAPLKPAKSA [IGF-I]” here?
A: 91%

Q: What about the “PERCENT MAX. BOUND” value ([1]; peptide 400 pM) of the same substance?
A: 30%

Q: And the “displacement of 125I-[Threonine59]IGF-I binding (in words)” value ([1]; rat brain sections)?
A: potently displaced

Q: What about the “brain ornithine decarboxylase activity (in words)” value [2] of the same substance?
A: dose-dependent increase in brain ornithine decarboxylase activity

Q: What about the “relative potency in promoting survival of cortical neurons (in words)” value ([3]; IGF-I versus IGF-II) of the same substance?
A: slightly more potent

Q: And the “survival of cortical neurons (in words)” value ([3]; [3H]leucine incorporation, 48 hr)?
A: promoted the survival of cortical neurons

Q: And the “prevention of developmentally regulated motoneuron death (in words)” value [4]?
A: partially prevented developmentally regulated motoneuron death
